Experiment [1] deals with cervical carcinoma cell lines. Briefly: Cell based assay, cell viability (CellTiter-Glo), cervical carcinoma cell lines. To be noted: Homo sapiens; HeLa cells.
Experiment [2] relates to renal cancer cell lines. Kind of experiment: Cell based assay, cell viability (CellTiter-Glo), renal cancer cell lines. The note with it: Homo sapiens; ACHN cells. Put shortly:
(§1)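 Luminescent ATP assay quantified surviving cells after three days of treatment. Compound was applied at final concentrations of 0 to 2 μM, starting 24 h after cells were seeded.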
Background: Cellular ATP, detected with luciferase, serves as a proxy for viable cell number.

Experiment [3] has as its system brain cancer cell lines. Kind of experiment: Cell based assay, cell viability (CellTiter-Glo), brain cancer cell lines. The note with it: Homo sapiens.
Experiment [4] deals with pancreatic cancer cell lines (e.g. MIA PaCa-2). Briefly: Cell based assay, cell viability (CellTiter-Glo), pancreatic cancer cell lines. To be noted: Homo sapiens. The procedure, abridged: as §1
Experiment [5] deals with blood cancer cell lines (e.g. HL-60, Jurkat, Raji, Ramos, Daudi, MOLT-4). Kind of experiment: Cell based assay, cell viability (CellTiter-Glo), blood cancer cell lines. To be noted: Homo sapiens. The procedure, abridged: as §1
The mark [6] stands for this setting: U138-MG, U-138 MG cell line, read-out: IC50, Brain cancer cell line U-138 MG.
[7] abbreviates: T98G cell line, read-out: IC50, Brain cancer cell line T98G.
The mark [8] stands for this setting: U-251 MG cell line, read-out: IC50, Brain cancer cell line U-251 MG.
The mark [9] stands for this setting: pancreatic cancer cell line AsPC-1, 72 hours, read-out: IC50, AsPC-1.
[10] abbreviates: pancreatic cancer cell line BxPC-3, 72 hours, read-out: IC50, BxPC-3.
Setting [11] is: pancreatic cancer cell line CFPAC-1, 72 hours, read-out: IC50, CFPAC-1.
Setting [12] is: pancreatic cancer cell line Capan-1, 72 hours, read-out: IC50, Capan-1.
Setting [13] is: pancreatic cancer cell line Capan-2, 72 hours, read-out: IC50, Capan-2.
The mark [14] stands for this setting: pancreatic cancer cell line MIA PaCa-2, 72 hours, read-out: IC50, MIA PaCa-2.
Setting [15] is: pancreatic cancer cell line PANC-1, 72 hours, read-out: IC50, PANC-1.
Setting [16] is: MV4-11, blood cancer cell line MV-4-11, 72 hours, read-out: IC50, MV-4-11.
Where [17] appears, read: blood cancer cell line Daudi, 72 hours, read-out: IC50, Daudi.
The mark [18] stands for this setting: blood cancer cell line HL-60, 72 hours, read-out: IC50, HL-60.
[19] abbreviates: blood cancer cell line Jurkat, 72 hours, read-out: IC50, Jurkat.
The mark [20] stands for this setting: blood cancer cell line MOLT-4, 72 hours, read-out: IC50, MOLT-4.
Where [21] appears, read: blood cancer cell line Raji, 72 hours, read-out: IC50, Raji.
Setting [22] is: blood cancer cell line Ramos (RA 1), 72 hours, read-out: IC50, Ramos (RA 1).
[23] abbreviates: blood cancer cell line U-937, 72 hours, read-out: IC50, U-937.

Like-named read-outs stand apart in the source and are kept apart here. Some results are limits rather than exact numbers.

Broadly, the IC50 is the concentration needed to halve the response being measured.

Regarding `CC(=O)c1c([S+]([O-])Cc2cc(C)on2)[nH]c2c(F)ccc(F)c2c1=O` (centres unmarked) [Compound 82, 3-acetyl-5,8-difluoro-2-(((5-methylisoxazol-3-yl)methyl)sulfinyl)quinolin-4(1H)-one], the half-inhibitory concentration (IC50) in experiment [1] is above 10000 nM; in experiment [2] it was above 2000 nM; in experiment [3] (setting [6]), above 2000 nM; in experiment [3] (setting [7]) it was above 10000 nM; in experiment [3] (setting [8]), above 2000 nM; in experiment [4] (setting [9]) it was above 2000 nM. The IC50 in experiment [4] (setting [10]) was above 2000 nM; in experiment [4] (setting [11]) it was above 10000 nM; in experiment [4] (setting [12]), above 2000 nM; in experiment [4] (setting [13]), above 2000 nM; in experiment [4] (setting [14]) it was above 2000 nM; in experiment [4] (setting [15]), above 2000 nM. In addition, the half-inhibitory concentration (IC50) in experiment [5] (setting [16]), in experiment [5] (setting [17]), in experiment [5] (setting [18]), in experiment [5] (setting [19]), in experiment [5] (setting [20]) and in experiment [5] (setting [21]) was above 2000 nM each time. For the same molecule, the IC50 in experiment [5] (setting [22]) and in experiment [5] (setting [23]) was above 2000 nM in each case.
As to `CC(C)C(=O)c1c([S+]([O-])Cc2ccc(SC(F)(F)F)cc2)[nH]c2c(F)ccc(F)c2c1=O` (centres unmarked) [Compound 85, 5,8-difluoro-3-isobutyryl-2-((4-((trifluoromethyl)thio)benzyl)sulfinyl)quinolin-4(1H)-one], the IC50 in experiment [1] was above 10000 nM; in experiment [2] it was above 2000 nM; in experiment [3] (setting [6]) it was above 10000 nM; in experiment [3] (setting [7]), above 10000 nM; in experiment [3] (setting [8]) it was above 2000 nM; in experiment [4] (setting [9]), above 2000 nM. For the same molecule, the IC50 is above 2000 nM in experiment [4] (setting [10]); above 10000 nM in experiment [4] (setting [11]); above 2000 nM in experiment [4] (setting [12]); above 2000 nM in experiment [4] (setting [13]); above 2000 nM in experiment [4] (setting [14]); above 2000 nM in experiment [4] (setting [15]). Further, the IC50 in experiment [5] (setting [16]), in experiment [5] (setting [17]), in experiment [5] (setting [18]), in experiment [5] (setting [19]), in experiment [5] (setting [20]) and in experiment [5] (setting [21]) was above 2000 nM in each case. Further, the IC50 in experiment [5] (setting [22]) and in experiment [5] (setting [23]) was above 2000 nM throughout.
For `O=C(c1ccccc1)c1c([S+]([O-])Cc2ccc(S(F)(F)(F)(F)F)cc2)[nH]c2c(F)ccc(F)c2c1=O` (centres unmarked) [Compound 87, 3-benzoyl-5,8-difluoro-2-((4-(pentafluoro--sulfanyl)benzyl)sulfinyl)quinolin-4(1H)-one], the IC50 was above 10000 nM in experiment [1]; above 2000 nM in experiment [2]; above 10000 nM in experiment [3] (setting [6]); above 10000 nM in experiment [3] (setting [7]); above 2000 nM in experiment [3] (setting [8]); above 2000 nM in experiment [4] (setting [9]). Further, the half-inhibitory concentration (IC50) was above 2000 nM in experiment [4] (setting [10]); above 10000 nM in experiment [4] (setting [11]); above 2000 nM in experiment [4] (setting [12]); above 2000 nM in experiment [4] (setting [13]); above 2000 nM in experiment [4] (setting [14]); above 2000 nM in experiment [4] (setting [15]). Further, the IC50 in experiment [5] (setting [16]), in experiment [5] (setting [17]), in experiment [5] (setting [18]), in experiment [5] (setting [19]), in experiment [5] (setting [20]) and in experiment [5] (setting [21]) was above 2000 nM throughout. Besides, the IC50 in experiment [5] (setting [22]) and in experiment [5] (setting [23]) was above 2000 nM each time.
For `Cc1cc(C[S+]([O-])c2[nH]c3c(Cl)ccc(Cl)c3c(=O)c2C(=O)c2ccccc2)no1` (centres unmarked) [Compound 88, 3-benzoyl-5,8-dichloro-2-(((5-methylisoxazol-3-yl)methyl)sulfinyl)quinolin-4(1H)-one], the IC50 in experiment [1] was above 10000 nM; in experiment [2], above 2000 nM; in experiment [3] (setting [6]) it was above 10000 nM; in experiment [3] (setting [7]), above 10000 nM; in experiment [3] (setting [8]), above 2000 nM; in experiment [4] (setting [9]), above 2000 nM. The IC50 in experiment [4] (setting [10]) was above 2000 nM; in experiment [4] (setting [11]), above 10000 nM; in experiment [4] (setting [12]), above 2000 nM; in experiment [4] (setting [13]) it was above 2000 nM; in experiment [4] (setting [14]), above 2000 nM; in experiment [4] (setting [15]), above 2000 nM. The 50% inhibitory concentration (IC50) in experiment [5] (setting [16]), in experiment [5] (setting [17]), in experiment [5] (setting [18]), in experiment [5] (setting [19]), in experiment [5] (setting [20]) and in experiment [5] (setting [21]) was above 2000 nM throughout. In addition, the 50% inhibitory concentration (IC50) in experiment [5] (setting [22]) and in experiment [5] (setting [23]) was above 2000 nM throughout.

The values above are taken from patent publication US11464770B2, “Anticancer pharmaceutical composition” (NATIONAL CANCER CENTER, priority 2016, dated 2022).
